Assay results: patent publication US8389236B2, “Assay” (Otago Innovation Limited, priority 2005, dated 2013)

Columns and labels:
[1] = tested on: HIV-1 gag/pol −1 frameshift signal sequence (HIV-1 frameshift construct); test: Stably transfected dual fluorescent reporter recoding assay in Flp-In CV1 cells (−1 frame construct); format: cell-based; conditions: for DsRed/EGFP ratio / Percentage decrease in ratio / Minus 1 Frameshift Construct EGFP signal, Average / Minus 1 Frameshift Construct DsRed signal, Average: 120 hours; for DsRed/EGFP ratio / Percentage decrease in ratio: stable Flp-In CV1 cells; for DsRed/EGFP ratio: not normalised to Null 0, expressed as a percentage; for Percentage decrease in ratio: vs no drug; for Minus 1 Frameshift Construct EGFP signal, Average: 485 excitation 515 emission; for Minus 1 Frameshift Construct DsRed signal, Average: 535 excitation 590 emission
Description: The translational recoding construct described above was excised via Hind III and Not I restrictions sites and ligated into a Flp-In™ pcDNA5/FRT expression vector (Invitrogen Life Technologies) before being stably transformed into Flp-In™ CV1 cells (Invitrogen Life Technologies) according to the manufacturer's instructions.
Flp-In CV1 cells (CV1 cells), as described in Example 2, transfected with the −1 frame construct, and untransfected CV1 cells were grown, harvested, trypsinised, washed and diluted to 1×10^5 cells/ml all under standard conditions.
Cells were then seeded in 96 well plates under standard conditions. The plates were then incubated for 120 hours at 37° C.
The cells were washed 3 times with Phosphate Buffered Saline (PBS) to remove any traces of culture medium. 100 ul of Passive Lysis buffer (Promega) was added. The cells were frozen. The frozen cells were then thawed and fluorescence intensity was read in the Tecan Genios Pro plate reader.
Plate reader setting were as follows:
Filters 485 excitation, 515 emission
Filters 535 excitation, 590 emission
As a Null 0 frameshift construct was not used in this experiment ratios of the DsRed to EGFP signal were calculated to take into account the decrease in the EGFP signal with increasing drug concentrations.
The calculation was similar to example 3, with the counts averaged, the control cell counts removed before working out the ratio of the DsRed signal to the EGFP signal. Normalisation using a Null 0 frame construct could not be performed, with the results below being expressed as a percentage. The calculation was a follows: [[DsRed signal: HIV-1 frameshift construct]/[EGFP signal: HIV-1 frameshift construct]]

[2] = tested on: HIV-1 gag/pol −1 frameshift signal sequence (HIV-1 frameshift construct); test: Dual fluorescent reporter (EGFP/DsRed) recoding assay in transiently transfected COS-7 cells, with Null 0 control construct; format: cell-based; conditions: for Minus 1 Frameshift Construct EGFP signal, Average / Null 0 Frameshift Construct EGFP signal, Average: 485 excitation 520-P emission; for Minus 1 Frameshift Construct DsRed signal, Average / Null 0 Frameshift Construct DsRed signal, Average: 525 excitation 600LP emission
Description: Mammalian COS-7 cells were grown, harvested, trypsinised, washed and diluted to 1×10^5 cells/ml all under standard conditions.
The diluted cells were then split into two equal portions. One portion was transiently transfected with the recoding construct, and other with the Null 0 frame control construct. Transient transfection was performed using 2 μL of FuGENE® 6 transfection reagent (Roche) and 500 ng of DNA for every mL of cells, in accordance with the manufacturing instructions.
Transfected cells were seeded in 24 well plates under standard conditions. Cycloheximide was added in triplicate at 50 nM and the plates were then incubated for 48 hours at 37° C.
The cells were washed 3 times with Phosphate Buffered Saline (PBS) to remove any traces of culture medium. 100 ul of Passive Lysis buffer (Promega) was added. The cells were frozen. The frozen cells were then thawed and transferred to a 96 well plate, and fluorescence intensity was read in the BMG PolarStar plate reader.
Plate reader settings were as follows:
Filters 485 excitation, 520-P emission
Filters 544 excitation, 590 emission
[[DsRed signal: HIV-1 frameshift construct]/[EGFP signal: HIV-1 frameshift construct]]/[[DsRed signal: Null 0 frameshift construct]/[EGFP signal: Null 0 frameshift construct]]
The diluted cells were then split into two equal portions. One portion was transfected, as described in Example 3, with the recoding construct, and other with the Null 0 frame control construct.
Cells were then seeded in 24 well plates under standard conditions. Anisomycin was added in triplicate at 50 nM and the plates were then incubated for 48 hours at 37° C.
The cells were prepared as described in examples 3 and 4.
DsRed signal at 525 excitation, 600LP emission
EGFP signal at 485 excitation, 520-P emission
Frameshift figures, shown in Table 5, were calculated using the formula shown in Example 3 using data from Tables 1, 2, 3 and 4.
Transfected cells were prepared as described in Example 5, and treated with 0 nM (no drug) 100 nM, 200 nM, 300 nM, 400 nM and 500 nM concentrations of anisomycin.
Incubation, plate reader setting and readings were as described in Example 5.
For the anisomycin titrations, the frameshift figures, shown in Table 10, were calculated using the formula shown in Example 3 using data from Tables 6, 7, 8 and 9.

[3] = 50 nM, 48 hours, 485 excitation, 520-P emission
[4] = 50 nM, 48 hours, 544 excitation, 590 emission
[5] = 100 nM, COS-7, 525/600LP filters, vs no drugs

**Q.** `COc1ccc(C[C@H]2NC[C@H](O)[C@H]2OC(C)=O)cc1` [Anisomycin] was tested. Which DsRed/EGFP ratio ([1]; 50 nM) did it give?
**A.** 7.81%

**Q.** And the “Percentage decrease in ratio” value ([1]; 50 nM)?
**A.** −1.47%

**Q.** What about the “Minus 1 Frameshift Construct EGFP signal, Average” value ([1]; 50 nM) of the same compound?
**A.** 12588

**Q.** And the “Minus 1 Frameshift Construct DsRed signal, Average” value ([1]; 50 nM)?
**A.** 1348

**Q.** And the DsRed/EGFP ratio ([1]; 100 nM)?
**A.** 7.60%

**Q.** And the “Percentage decrease in ratio” value ([1]; 100 nM)?
**A.** 1.17%

**Q.** What about the “Minus 1 Frameshift Construct EGFP signal, Average” value ([1]; 100 nM) of the same compound?
**A.** 12188

**Q.** What about the “Minus 1 Frameshift Construct DsRed signal, Average” value ([1]; 100 nM) of the same compound?
**A.** 1301

**Q.** And the DsRed/EGFP ratio ([1]; 500 nM)?
**A.** 1.44%

**Q.** And the “Percentage decrease in ratio” value ([1]; 500 nM)?
**A.** 81.34%

**Q.** What about the “Minus 1 Frameshift Construct EGFP signal, Average” value ([1]; 500 nM) of the same compound?
**A.** 8977

**Q.** What about the “Minus 1 Frameshift Construct DsRed signal, Average” value ([1]; 500 nM) of the same compound?
**A.** 795

**Q.** And the DsRed/EGFP ratio ([1]; 1000 nM)?
**A.** −0.81%

**Q.** What about the “Percentage decrease in ratio” value ([1]; 1000 nM) of the same compound?
**A.** 110.53%

**Q.** What about the “Minus 1 Frameshift Construct EGFP signal, Average” value ([1]; 1000 nM) of the same compound?
**A.** 8386

**Q.** And the “Minus 1 Frameshift Construct DsRed signal, Average” value ([1]; 1000 nM)?
**A.** 704

**Q.** And the DsRed/EGFP ratio ([1]; 2000 nM)?
**A.** −3.13%

**Q.** And the “Percentage decrease in ratio” value ([1]; 2000 nM)?
**A.** 140.70%

**Q.** And the “Minus 1 Frameshift Construct EGFP signal, Average” value ([1]; 2000 nM)?
**A.** 7681

**Q.** And the “Minus 1 Frameshift Construct DsRed signal, Average” value ([1]; 2000 nM)?
**A.** 641

**Q.** What about the “% decrease in ratio over concentration range” value ([1]; range between 50 nM and 2000 nM, stable cells, result in words) of the same compound?
**A.** dose responsive effect

**Q.** And the “decrease in frameshift from the original (no drug) value” ([2]; 50 nM, 48 hours, COS-7, 544/590 filters)?
**A.** 5.3%

**Q.** What about the Frameshift ([2]; 50 nM, 48 hours, COS-7, DsRed 544 excitation/590 emission, EGFP 485/520-P, normalised to Null 0 construct) of the same compound?
**A.** 5.64%

**Q.** What about the “absolute change frameshift efficiency” value ([2]; 50 nM, 48 hours, COS-7, vs no drug control, 544/590 filters) of the same compound?
**A.** 0.32%

**Q.** What about the “EGFP signal, HIV-1 frameshift construct, average” value [2, 3] of the same compound?
**A.** 32666 RFU

**Q.** And the “EGFP signal, HIV-1 frameshift construct, average minus control” value [2, 3]?
**A.** 32336 RFU

**Q.** And the “EGFP signal, Null 0 frameshift construct, average” value [2, 3]?
**A.** 56491 RFU

**Q.** What about the “EGFP signal, Null 0 frameshift construct, average minus control” value [2, 3] of the same compound?
**A.** 56161 RFU

**Q.** And the “DsRed signal, HIV-1 frameshift construct, average” value [2, 4]?
**A.** 1975 RFU

**Q.** What about the “DsRed signal, HIV-1 frameshift construct, average minus control” value [2, 4] of the same compound?
**A.** 1891 RFU

**Q.** What about the “DsRed signal, Null 0 frameshift construct, average” value [2, 4] of the same compound?
**A.** 58293 RFU

**Q.** What about the “DsRed signal, Null 0 frameshift construct, average minus control” value [2, 4] of the same compound?
**A.** 58209 RFU

**Q.** And the “Minus 1 Frameshift Construct EGFP signal, Average” value ([2]; 100 nM)?
**A.** 31923

**Q.** And the “Null 0 Frameshift Construct EGFP signal, Average” value ([2]; 100 nM)?
**A.** 55732

**Q.** And the “Minus 1 Frameshift Construct DsRed signal, Average” value ([2]; 100 nM)?
**A.** 3072

**Q.** What about the “Null 0 Frameshift Construct DsRed signal, Average” value ([2]; 100 nM) of the same compound?
**A.** 55345

**Q.** And the “Percentage decrease in frameshift” value [2, 5]?
**A.** 1.39%

**Q.** What about the “absolute change in frameshift efficiency” value [2, 5] of the same compound?
**A.** 0.11%

**Q.** And the “Percentage decrease in frameshift” value ([2]; 100 nM, COS-7, 525/600LP filters, vs no drugs, listed as anisomycin)?
**A.** 1.4%

**Q.** And the Frameshift ([2]; 100 nM, COS-7, DsRed 525 excitation/600LP emission)?
**A.** 7.89%

**Q.** What about the Frameshift ([2]; 100 nM, COS-7, DsRed 525 excitation/600LP emission, listed as anisomycin) of the same compound?
**A.** 7.88%

**Q.** And the “Minus 1 Frameshift Construct EGFP signal, Average” value ([2]; 200 nM)?
**A.** 37862

**Q.** And the “Null 0 Frameshift Construct EGFP signal, Average” value ([2]; 200 nM)?
**A.** 51856

**Q.** And the “Minus 1 Frameshift Construct DsRed signal, Average” value ([2]; 200 nM)?
**A.** 3555

**Q.** What about the “Null 0 Frameshift Construct DsRed signal, Average” value ([2]; 200 nM) of the same compound?
**A.** 50020

**Q.** What about the “Percentage decrease in frameshift” value ([2]; 200 nM, COS-7, 525/600LP filters, vs no drugs) of the same compound?
**A.** −2.21%

**Q.** And the Frameshift ([2]; 200 nM, COS-7, DsRed 525 excitation/600LP emission)?
**A.** 8.17%

**Q.** And the “Minus 1 Frameshift Construct EGFP signal, Average” value ([2]; 300 nM)?
**A.** 32560

**Q.** What about the “Null 0 Frameshift Construct EGFP signal, Average” value ([2]; 300 nM) of the same compound?
**A.** 38929

**Q.** What about the “Minus 1 Frameshift Construct DsRed signal, Average” value ([2]; 300 nM) of the same compound?
**A.** 2995

**Q.** What about the “Null 0 Frameshift Construct DsRed signal, Average” value ([2]; 300 nM) of the same compound?
**A.** 36774

**Q.** What about the “Percentage decrease in frameshift” value ([2]; 300 nM, COS-7, 525/600LP filters, vs no drugs) of the same compound?
**A.** 1.47%

**Q.** What about the Frameshift ([2]; 300 nM, COS-7, DsRed 525 excitation/600LP emission) of the same compound?
**A.** 7.88%

**Q.** What about the “Minus 1 Frameshift Construct EGFP signal, Average” value ([2]; 400 nM) of the same compound?
**A.** 18630

**Q.** And the “Null 0 Frameshift Construct EGFP signal, Average” value ([2]; 400 nM)?
**A.** 18532

**Q.** And the “Minus 1 Frameshift Construct DsRed signal, Average” value ([2]; 400 nM)?
**A.** 1804

**Q.** What about the “Null 0 Frameshift Construct DsRed signal, Average” value ([2]; 400 nM) of the same compound?
**A.** 16734

**Q.** And the “Percentage decrease in frameshift” value ([2]; 400 nM, COS-7, 525/600LP filters, vs no drugs)?
**A.** 8.53%

**Q.** And the Frameshift ([2]; 400 nM, COS-7, DsRed 525 excitation/600LP emission)?
**A.** 7.32%

**Q.** What about the “Minus 1 Frameshift Construct EGFP signal, Average” value ([2]; 500 nM) of the same compound?
**A.** 9376

**Q.** And the “Null 0 Frameshift Construct EGFP signal, Average” value ([2]; 500 nM)?
**A.** 8119

**Q.** What about the “Minus 1 Frameshift Construct DsRed signal, Average” value ([2]; 500 nM) of the same compound?
**A.** 1121

**Q.** And the “Null 0 Frameshift Construct DsRed signal, Average” value ([2]; 500 nM)?
**A.** 7045

**Q.** And the “Percentage decrease in frameshift” value ([2]; 500 nM, COS-7, 525/600LP filters, vs no drugs)?
**A.** 16.21%

**Q.** And the Frameshift ([2]; 500 nM, COS-7, DsRed 525 excitation/600LP emission)?
**A.** 6.70%

**Q.** And the “effect on −1 frameshifting” value ([2]; result in words)?
**A.** antagonists to −1 frameshifting
